This passage reports IC50 results from patent US7074789B2, “Kinase inhibitors” (Amgen Inc., priority 1999, dated 2006).

Structures are written as SMILES.

What all share (type): biochemical
One experiment deals with T1, Itk (Homo sapiens, UniProt Q08881).
T1 construct: Kinases are expressed as either kinase domains or full length constructs; made in house
T1 sequence (Q08881 1-620): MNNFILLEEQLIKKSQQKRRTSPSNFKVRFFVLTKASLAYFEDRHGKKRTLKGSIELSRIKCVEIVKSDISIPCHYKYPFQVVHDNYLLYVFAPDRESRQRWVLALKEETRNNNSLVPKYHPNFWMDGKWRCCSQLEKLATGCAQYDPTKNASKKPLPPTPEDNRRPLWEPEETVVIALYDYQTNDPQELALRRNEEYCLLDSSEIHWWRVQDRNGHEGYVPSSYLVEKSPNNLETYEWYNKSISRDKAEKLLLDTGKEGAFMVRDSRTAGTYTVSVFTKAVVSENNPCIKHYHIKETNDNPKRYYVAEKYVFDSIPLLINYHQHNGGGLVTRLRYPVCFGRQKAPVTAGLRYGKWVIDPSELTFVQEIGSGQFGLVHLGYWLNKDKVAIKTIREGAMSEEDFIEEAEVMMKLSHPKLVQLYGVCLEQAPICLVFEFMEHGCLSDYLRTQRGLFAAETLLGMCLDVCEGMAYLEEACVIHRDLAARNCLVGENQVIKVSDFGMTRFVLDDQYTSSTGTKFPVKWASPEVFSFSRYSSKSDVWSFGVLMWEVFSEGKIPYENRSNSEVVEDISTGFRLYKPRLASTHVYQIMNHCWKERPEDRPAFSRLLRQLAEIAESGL
Briefly: Kinase inhibition assay (33P transfer), Itk. Conditions: read-out: Itk-1. The gist of the method:
(§1)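 GST/His-fusion kinases, E. coli or High Five expressed, affinity purified; 33P-ATP, plate-coated poly(Glu,Tyr) 4:1 or poly(Arg,Ser) 3:1; 0.5% H3PO4 wash, scintillant, LSC.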

Another experiment concerns the target T2, Zap-70 (Homo sapiens, UniProt P43403).
T2 construct: Kinases are expressed as either kinase domains or full length constructs; made in house
T2 sequence (P43403 1-619): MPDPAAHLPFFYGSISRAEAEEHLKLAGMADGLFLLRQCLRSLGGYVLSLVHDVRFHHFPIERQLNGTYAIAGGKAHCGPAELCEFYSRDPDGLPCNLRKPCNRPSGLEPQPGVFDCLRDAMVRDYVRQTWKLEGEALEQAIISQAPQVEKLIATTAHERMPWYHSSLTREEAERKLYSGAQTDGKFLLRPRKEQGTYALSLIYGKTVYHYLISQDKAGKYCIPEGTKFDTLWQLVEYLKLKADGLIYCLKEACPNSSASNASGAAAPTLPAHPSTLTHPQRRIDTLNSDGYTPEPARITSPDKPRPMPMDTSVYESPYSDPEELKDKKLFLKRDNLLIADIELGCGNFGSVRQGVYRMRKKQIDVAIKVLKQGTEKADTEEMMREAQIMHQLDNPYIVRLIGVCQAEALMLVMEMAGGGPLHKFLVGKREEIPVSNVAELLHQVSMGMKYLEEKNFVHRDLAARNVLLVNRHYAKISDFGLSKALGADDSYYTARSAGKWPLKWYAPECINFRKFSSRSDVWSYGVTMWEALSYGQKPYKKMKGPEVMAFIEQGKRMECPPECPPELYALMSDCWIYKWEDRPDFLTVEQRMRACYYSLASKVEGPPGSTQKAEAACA
The experiment can be described thus: Kinase inhibition assay (33P transfer), Zap-70. Conditions: read-out: Zap-1. The gist of the method: (§2)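 Each kinase, expressed as a GST- or polyHis-tagged domain or full-length protein, phosphorylated plate-attached poly(Glu,Tyr) 4:1 or poly(Arg,Ser) 3:1 using 33P-ATP. Bound radioactivity was measured by scintillation after a 0.5% phosphoric acid wash.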

The target in the next experiment is T3, Lck (Homo sapiens, UniProt P06239).
T3 construct: Kinases are expressed as either kinase domains or full length constructs; made in house
T3 sequence (P06239 whole entry, species assumed, the tested form may be a part): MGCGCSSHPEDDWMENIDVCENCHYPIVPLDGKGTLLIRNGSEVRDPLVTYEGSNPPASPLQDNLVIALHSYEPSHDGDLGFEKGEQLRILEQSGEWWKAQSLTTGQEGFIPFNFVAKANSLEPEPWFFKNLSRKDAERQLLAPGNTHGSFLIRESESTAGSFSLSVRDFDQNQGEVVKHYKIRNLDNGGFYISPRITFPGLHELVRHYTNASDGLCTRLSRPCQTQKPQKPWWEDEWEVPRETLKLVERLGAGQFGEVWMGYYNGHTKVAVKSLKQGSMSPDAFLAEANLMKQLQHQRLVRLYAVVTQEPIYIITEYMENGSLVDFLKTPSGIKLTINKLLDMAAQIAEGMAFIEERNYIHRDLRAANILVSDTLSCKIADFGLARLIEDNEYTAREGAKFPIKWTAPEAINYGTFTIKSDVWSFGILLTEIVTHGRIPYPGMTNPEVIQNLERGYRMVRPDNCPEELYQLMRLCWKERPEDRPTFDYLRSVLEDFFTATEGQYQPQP
The experiment can be described thus: Kinase inhibition assay (33P transfer), Lck. Conditions: read-out: Lck-1. A digest of the protocol:
as §2

The next experiment has as its target T4, Kdr (Homo sapiens, UniProt P35968).
T4 construct: Kinases are expressed as either kinase domains or full length constructs; made in house
The experiment can be described thus: Kinase inhibition assay (33P transfer), Kdr. To be noted: read-out: KDR-1. A digest of the protocol: as §2

Another experiment has as its target T5, AKT (Homo sapiens, UniProt Q9Y243).
T5 construct: Kinases are expressed as either kinase domains or full length constructs; made in house
The experiment can be described thus: Kinase inhibition assay (33P transfer), AKT. To be noted: Table 2, kinase inhibition class; read-out: AKT3-1. The gist of the method: as §2

The next experiment concerns the target T6, EGFR (Homo sapiens, UniProt P00533).
T6 construct: Kinases are expressed as either kinase domains or full length constructs; made in house
The experiment can be described thus: Kinase inhibition assay (33P transfer), EGFR. To be noted: Table 2, kinase inhibition class; read-out: EGFR-1. The gist of the method: as §1

A further experiment addresses T7, ErbB2 (Homo sapiens, UniProt P04626).
T7 construct: Kinases are expressed as either kinase domains or full length constructs; made in house
Briefly: Kinase inhibition assay (33P transfer), ErbB2. Conditions: read-out: ErbB2-2. A digest of the protocol: as §1

The target in the next experiment is T8, IGFR-1 (Homo sapiens, UniProt P08069).
T8 construct: Kinases are expressed as either kinase domains or full length constructs; made in house
Briefly: Kinase inhibition assay, IGFR-1 (Table 2). To be noted: Table 2, kinase inhibition class.

The next experiment has as its target T9, PDGFRB (Homo sapiens, UniProt P09619).
T9 construct: Kinases are expressed as either kinase domains or full length constructs; made in house
Briefly: Kinase inhibition assay (33P transfer), PDGFRB. Conditions: read-out: PDGFRB-1.

A further experiment concerns the target T10, c-Met (Homo sapiens, UniProt P08581).
T10 construct: Kinases are expressed as either kinase domains or full length constructs; made in house
The experiment can be described thus: Kinase inhibition assay (33P transfer), c-Met. To be noted: Table 2, kinase inhibition class; read-out: Met-1. A digest of the protocol:
as §1

T6 sequence (P00533 25-1210, species assumed): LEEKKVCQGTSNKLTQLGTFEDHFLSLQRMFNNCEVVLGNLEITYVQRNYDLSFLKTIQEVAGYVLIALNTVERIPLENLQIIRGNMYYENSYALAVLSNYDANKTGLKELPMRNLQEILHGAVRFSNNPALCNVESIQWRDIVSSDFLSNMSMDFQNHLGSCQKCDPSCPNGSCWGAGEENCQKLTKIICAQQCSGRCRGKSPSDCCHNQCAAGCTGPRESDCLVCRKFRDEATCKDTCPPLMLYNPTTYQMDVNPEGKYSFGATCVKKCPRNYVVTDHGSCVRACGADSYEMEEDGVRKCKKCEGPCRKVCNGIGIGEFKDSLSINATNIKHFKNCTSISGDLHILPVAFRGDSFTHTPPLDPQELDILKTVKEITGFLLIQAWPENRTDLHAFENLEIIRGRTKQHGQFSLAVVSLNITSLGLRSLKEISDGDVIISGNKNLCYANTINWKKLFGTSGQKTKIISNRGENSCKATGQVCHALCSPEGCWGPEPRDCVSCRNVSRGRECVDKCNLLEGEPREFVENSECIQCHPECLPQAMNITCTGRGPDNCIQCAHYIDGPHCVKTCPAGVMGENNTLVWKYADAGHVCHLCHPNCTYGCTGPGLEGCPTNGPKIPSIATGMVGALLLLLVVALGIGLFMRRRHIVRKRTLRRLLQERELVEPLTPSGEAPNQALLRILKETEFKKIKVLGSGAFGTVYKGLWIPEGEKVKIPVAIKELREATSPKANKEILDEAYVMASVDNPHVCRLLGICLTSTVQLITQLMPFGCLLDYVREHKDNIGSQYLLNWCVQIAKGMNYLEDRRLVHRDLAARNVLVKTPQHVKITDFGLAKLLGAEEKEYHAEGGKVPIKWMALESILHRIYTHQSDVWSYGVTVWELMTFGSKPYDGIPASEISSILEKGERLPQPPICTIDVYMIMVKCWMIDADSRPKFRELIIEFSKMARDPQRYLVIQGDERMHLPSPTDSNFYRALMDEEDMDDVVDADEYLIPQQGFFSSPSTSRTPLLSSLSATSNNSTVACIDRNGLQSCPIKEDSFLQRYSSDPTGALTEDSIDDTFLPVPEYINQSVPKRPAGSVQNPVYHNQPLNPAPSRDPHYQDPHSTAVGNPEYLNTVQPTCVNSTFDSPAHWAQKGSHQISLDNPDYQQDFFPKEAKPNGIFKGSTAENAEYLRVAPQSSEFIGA
T5 sequence (Q9Y243 whole entry, the tested form may be a part): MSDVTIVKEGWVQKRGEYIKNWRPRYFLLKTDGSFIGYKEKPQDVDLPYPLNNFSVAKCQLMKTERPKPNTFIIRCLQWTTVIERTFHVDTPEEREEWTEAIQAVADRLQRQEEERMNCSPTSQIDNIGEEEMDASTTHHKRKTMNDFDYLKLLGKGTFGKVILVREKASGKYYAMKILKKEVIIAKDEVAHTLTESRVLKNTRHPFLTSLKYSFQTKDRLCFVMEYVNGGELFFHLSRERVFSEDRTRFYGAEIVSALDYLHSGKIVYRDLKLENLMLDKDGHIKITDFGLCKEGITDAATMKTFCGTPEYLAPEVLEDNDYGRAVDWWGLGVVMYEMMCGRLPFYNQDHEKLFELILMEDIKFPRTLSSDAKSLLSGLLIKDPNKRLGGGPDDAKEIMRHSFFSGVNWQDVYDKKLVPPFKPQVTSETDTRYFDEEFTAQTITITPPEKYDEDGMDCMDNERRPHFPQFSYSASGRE
T7 sequence (P04626 23-1255, species assumed): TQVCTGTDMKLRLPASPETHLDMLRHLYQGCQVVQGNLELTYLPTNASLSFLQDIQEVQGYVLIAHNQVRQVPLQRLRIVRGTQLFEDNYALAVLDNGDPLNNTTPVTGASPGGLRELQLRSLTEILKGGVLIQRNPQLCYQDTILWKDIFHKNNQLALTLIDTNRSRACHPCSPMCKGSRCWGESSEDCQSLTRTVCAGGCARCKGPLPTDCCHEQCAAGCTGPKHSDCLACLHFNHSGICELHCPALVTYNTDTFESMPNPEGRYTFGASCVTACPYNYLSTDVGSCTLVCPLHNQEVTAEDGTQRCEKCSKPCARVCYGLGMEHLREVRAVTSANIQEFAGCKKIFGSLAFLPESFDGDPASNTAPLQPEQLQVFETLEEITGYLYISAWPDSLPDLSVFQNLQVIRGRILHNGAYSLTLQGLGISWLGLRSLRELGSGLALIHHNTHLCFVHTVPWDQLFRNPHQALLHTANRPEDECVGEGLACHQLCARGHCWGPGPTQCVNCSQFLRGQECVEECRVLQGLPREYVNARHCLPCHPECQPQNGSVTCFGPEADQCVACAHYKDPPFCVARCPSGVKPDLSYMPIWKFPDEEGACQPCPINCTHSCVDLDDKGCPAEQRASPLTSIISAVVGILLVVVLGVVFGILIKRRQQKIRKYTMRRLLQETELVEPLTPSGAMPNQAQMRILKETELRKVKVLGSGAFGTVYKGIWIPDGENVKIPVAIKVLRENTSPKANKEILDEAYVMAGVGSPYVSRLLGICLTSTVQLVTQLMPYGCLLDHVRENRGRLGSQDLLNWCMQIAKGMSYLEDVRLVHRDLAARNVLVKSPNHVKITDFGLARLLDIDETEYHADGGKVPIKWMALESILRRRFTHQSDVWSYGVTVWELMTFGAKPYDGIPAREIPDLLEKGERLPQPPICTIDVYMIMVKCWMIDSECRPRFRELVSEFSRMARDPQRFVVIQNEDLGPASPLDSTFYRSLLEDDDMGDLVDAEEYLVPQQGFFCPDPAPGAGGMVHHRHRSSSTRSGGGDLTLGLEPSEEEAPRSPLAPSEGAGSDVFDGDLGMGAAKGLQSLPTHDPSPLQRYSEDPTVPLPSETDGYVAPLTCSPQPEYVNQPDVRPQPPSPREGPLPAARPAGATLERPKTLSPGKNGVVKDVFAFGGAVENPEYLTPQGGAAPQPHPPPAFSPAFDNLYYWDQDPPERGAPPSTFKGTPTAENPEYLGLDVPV
T9 sequence (P09619 33-1106, species assumed): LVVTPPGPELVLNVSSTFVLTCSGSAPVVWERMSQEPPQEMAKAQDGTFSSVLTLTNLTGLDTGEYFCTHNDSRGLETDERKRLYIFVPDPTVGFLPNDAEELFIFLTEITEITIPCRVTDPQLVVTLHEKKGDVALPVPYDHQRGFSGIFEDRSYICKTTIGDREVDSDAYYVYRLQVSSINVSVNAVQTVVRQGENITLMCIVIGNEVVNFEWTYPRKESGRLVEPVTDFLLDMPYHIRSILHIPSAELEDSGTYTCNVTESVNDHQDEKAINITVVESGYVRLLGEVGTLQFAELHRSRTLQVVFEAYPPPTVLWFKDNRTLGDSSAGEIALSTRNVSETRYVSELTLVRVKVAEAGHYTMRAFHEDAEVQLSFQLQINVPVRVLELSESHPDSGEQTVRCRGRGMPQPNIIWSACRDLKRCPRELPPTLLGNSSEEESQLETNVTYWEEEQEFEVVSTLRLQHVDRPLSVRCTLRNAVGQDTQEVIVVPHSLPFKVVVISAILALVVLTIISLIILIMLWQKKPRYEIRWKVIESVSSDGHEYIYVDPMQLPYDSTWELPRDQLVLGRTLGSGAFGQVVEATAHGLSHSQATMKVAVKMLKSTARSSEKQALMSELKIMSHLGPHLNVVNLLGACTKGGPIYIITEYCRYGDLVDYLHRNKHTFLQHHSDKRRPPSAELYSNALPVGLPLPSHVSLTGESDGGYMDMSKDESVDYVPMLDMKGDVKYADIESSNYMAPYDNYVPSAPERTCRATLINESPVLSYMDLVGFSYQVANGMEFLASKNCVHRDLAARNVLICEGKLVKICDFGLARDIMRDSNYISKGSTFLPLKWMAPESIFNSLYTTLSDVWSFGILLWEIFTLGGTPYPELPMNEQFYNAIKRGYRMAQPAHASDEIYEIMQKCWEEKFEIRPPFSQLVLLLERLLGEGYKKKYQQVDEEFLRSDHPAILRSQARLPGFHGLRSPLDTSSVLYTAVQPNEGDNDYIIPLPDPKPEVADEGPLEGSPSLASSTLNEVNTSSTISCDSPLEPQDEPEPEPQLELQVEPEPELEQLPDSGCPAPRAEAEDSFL

On to `CN(c1cccc(Cl)c1)c1ncnc(Nc2ccc(F)c(C(F)(F)F)c2)n1` [Compound 742], for which the IC50 at Itk was more than 11.3 µM; on Zap-70, more than 11.3 µM; on Lck, more than 11.3 µM; at Kdr it was more than 11300 nM; on AKT, more than 11.3 µM; at EGFR, 1010 to 6030 nM. Besides, the IC50 at ErbB2, against IGFR-1, at PDGFRB and on c-Met was more than 11.3 µM throughout.

On to `COc1cc(Nc2ncnc(-n3c(Nc4ccc(N(C)C)cc4)nc4ccccc43)n2)cc(OC)c1OC` [Compound 1051], for which the IC50 is 4.68 to 6.83 µM at Itk; more than 8.78 µM on Zap-70; less than 0.78 µM at Lck; less than 780 nM at Kdr; more than 8.78 µM on AKT; more than 8780 nM at EGFR. Besides, the IC50 on ErbB2 was 0.78 to 4.68 µM; against IGFR-1, 4.68 to 6.83 µM; at PDGFRB, 0.78 to 4.68 µM; at c-Met it was more than 8.78 µM.

In the case of `COc1cc(Nc2ncnc(Nc3ccc(OCC(=O)Nc4ccccc4)cc3)n2)cc(OC)c1OC` [Compound 623], the IC50 at Itk is 0.796 to 4.78 µM; at Zap-70, more than 8.95 µM; on Lck, less than 0.796 µM; at Kdr, 796 to 4780 nM; at AKT, more than 8.95 µM; at EGFR, 796 to 4780 nM. Moreover, the IC50 is 0.796 to 4.78 µM at ErbB2, 0.796 to 4.78 µM against IGFR-1, less than 0.796 µM at PDGFRB and 6.96 to 8.95 µM on c-Met.

For `COc1ccc(CNc2ncnc(Nc3ccc4c(cnn4Cc4ccccc4)c3)n2)cc1OC` [Compound 732], the IC50 at Itk was more than 9.62 µM; on Zap-70, 7.49 to 9.62 µM; on Lck it was more than 9.62 µM; on Kdr, more than 9620 nM; on AKT, more than 9.62 µM; at EGFR, 7490 to 9620 nM. Also, the IC50 on ErbB2 is more than 9.62 µM; on IGFR-1, 7.49 to 9.62 µM; on PDGFRB, more than 9.62 µM; at c-Met, more than 9.62 µM.

In the case of `Cc1ccc(Nc2ncnc(Nc3cccc(CC(=O)O)c3)n2)cc1O` [Compound 543], the IC50 was more than 12.8 µM on Itk; more than 12.8 µM at Zap-70; 6.83 to 9.96 µM at Lck; less than 1140 nM on Kdr; more than 12.8 µM on AKT; less than 1140 nM on EGFR. In addition, the IC50 is 1.14 to 6.83 µM on ErbB2, more than 12.8 µM at IGFR-1, 1.14 to 6.83 µM at PDGFRB and more than 12.8 µM on c-Met.

As for `Cc1cccc(Nc2ncnc(N(C)c3cccc(Br)c3)n2)c1` [Compound 666], the IC50 was more than 12.2 µM on Itk; more than 12.2 µM at Zap-70; 6.48 to 9.45 µM on Lck; more than 12200 nM on Kdr; more than 12.2 µM at AKT; less than 1080 nM at EGFR. Also, the IC50 at ErbB2 is 1.08 to 6.48 µM; against IGFR-1, more than 12.2 µM; on PDGFRB, 9.45 to 12.2 µM; on c-Met it was 6.48 to 9.45 µM.

As to `Cc1cccc(Nc2ncnc(Nc3cc(-c4ccccc4)n[nH]3)n2)c1` [Compound 1012], the IC50 was 1.16 to 6.99 µM on Itk; 10.2 to 13.1 µM at Zap-70; 1.16 to 6.99 µM on Lck; 1160 to 6990 nM at Kdr; 1.16 to 6.99 µM on AKT; less than 1160 nM at EGFR. For the same compound, the IC50 on ErbB2 was 6.99 to 10.2 µM; on IGFR-1, less than 1.16 µM; on PDGFRB it was 1.16 to 6.99 µM; at c-Met it was 1.16 to 6.99 µM.

Turning to `Cc1ccc2c(c1)CCCN2c1ncnc(NCCN2CCOCC2)n1` [Compound 776], the IC50 on Itk was more than 12.7 µM; at Zap-70, more than 12.7 µM; at Lck, more than 12.7 µM; on Kdr, more than 12700 nM; at AKT it was more than 12.7 µM; on EGFR, more than 12700 nM. The IC50 on ErbB2, at IGFR-1, on PDGFRB and on c-Met was more than 12.7 µM throughout.

Consider `COc1ccc(Nc2ncnc(NCCCN3CCN(C)CC3)n2)cc1OC` [Compound 786], for which the IC50 on Itk was more than 11.6 µM; at Zap-70, more than 11.6 µM; on Lck, more than 11.6 µM; on Kdr, more than 11600 nM; on AKT it was more than 11.6 µM; at EGFR, more than 11600 nM. Also, the IC50 at ErbB2, at IGFR-1, on PDGFRB and at c-Met was more than 11.6 µM in each case.

For the compound `CCN(c1ccccc1)c1ncnc(Nc2cc(OC)c(OC)c(OC)c2)n1` [Compound 536], the IC50 is more than 11.8 µM on Itk; more than 11.8 µM on Zap-70; 1.05 to 6.29 µM at Lck; less than 1050 nM on Kdr; more than 11.8 µM at AKT; less than 1050 nM on EGFR. Also, the IC50 was 1.05 to 6.29 µM on ErbB2, 1.05 to 6.29 µM against IGFR-1, 1.05 to 6.29 µM on PDGFRB and less than 1.05 µM on c-Met.

In the case of `COC(=O)Cc1cccc(Nc2ncnc(-n3c(NCc4ccc(OC)cc4)nc4ccccc43)n2)c1` [Compound 548], the IC50 on Itk was more than 9.08 µM; on Zap-70 it was more than 9.08 µM; at Lck, more than 9.08 µM; on Kdr it was less than 807 nM; at AKT, more than 9.08 µM; at EGFR it was more than 9080 nM. Moreover, the IC50 on ErbB2, on IGFR-1, on PDGFRB and at c-Met was more than 9.08 µM in each case.

For `NC(=O)Cc1cccc(Nc2ncnc(Nc3cc(-c4ccccc4)n[nH]3)n2)c1` [Compound 578], the IC50 on Itk is less than 1.04 µM; on Zap-70, more than 11.6 µM; on Lck, less than 1.04 µM; on Kdr, less than 1040 nM; at AKT, more than 11.6 µM; on EGFR it was less than 1040 nM. The IC50 was 1.04 to 6.21 µM on ErbB2, less than 1.04 µM against IGFR-1, 1.04 to 6.21 µM at PDGFRB and less than 1.04 µM on c-Met.

Regarding `COc1cc(Nc2ncnc(N(C)c3cccc(Cl)c3)n2)cc(OC)c1` [Compound 712], the IC50 on Itk was more than 12.1 µM; on Zap-70, more than 12.1 µM; on Lck, 1.08 to 6.45 µM; on Kdr, 1080 to 6450 nM; at AKT, more than 12.1 µM; at EGFR it was less than 1080 nM. The IC50 was less than 1.08 µM at ErbB2, more than 12.1 µM against IGFR-1, 1.08 to 6.45 µM on PDGFRB and 1.08 to 6.45 µM on c-Met.

Consider `CN(c1cccc(Cl)c1)c1ncnc(Nc2ccc3[nH]ccc3c2)n1` [Compound 714], for which the IC50 on Itk is more than 12.8 µM; on Zap-70, more than 12.8 µM; at Lck it was 1.14 to 6.84 µM; on Kdr, 1140 to 6840 nM; on AKT it was more than 12.8 µM; at EGFR, less than 1140 nM. The IC50 was less than 1.14 µM at ErbB2, 1.14 to 6.84 µM against IGFR-1, 1.14 to 6.84 µM at PDGFRB and 1.14 to 6.84 µM on c-Met.
